The values below come from patent US6191118A (Taisho Pharmaceutical Co., Ltd., priority 1996, dated 2001).

Each structure is given as a SMILES string. Values after ≈ are worked out from the molar mass of the structure shown.

Holding throughout (type): cell-based
Experiment [1] relates to S. pneumoniae BM 210. The experiment in a line: In vitro antibacterial activity (MIC), S. pneumoniae BM 210. To be noted: Streptococcus pneumoniae, BM210, sensitive disc media, Japan Society of Chemotherapy method, read-out: MIC (Minimum Inhibitory Concentration). The procedure:
(§1) The in vitro antibacterial activity of the compound obtained in Example 4 as an example of the compound of the present invention against various experimental bacteria was measured using sensitive disc media (produced by Eiken Chemical Co.) according to the MIC measuring method specified by the Japan Society of Chemotherapy. Clarithromycin was used as a comparative drug.

For experiment [2], the system named is S. aureus B1. The experiment in a line: In vitro antibacterial activity (MIC), S. aureus B1. To be noted: Staphylococcus aureus, sensitive disc media, Japan Society of Chemotherapy method, read-out: MIC (Minimum Inhibitory Concentration). How it is done: as §1
Experiment [3] concerns S. aureus J-109. The experiment in a line: In vitro antibacterial activity (MIC), S. aureus J-109. As to conditions: Staphylococcus aureus, J109, sensitive disc media, Japan Society of Chemotherapy method, read-out: MIC (Minimum Inhibitory Concentration). How it is done: as §1
Experiment [4] concerns S. pneumoniae BM 205. Briefly: In vitro antibacterial activity (MIC), S. pneumoniae BM 205. As to conditions: Streptococcus pneumoniae, BM205, sensitive disc media, Japan Society of Chemotherapy method, read-out: MIC (Minimum Inhibitory Concentration). The procedure: as §1
Experiment [5] concerns S. pneumoniae IID 553. Briefly: In vitro antibacterial activity (MIC), S. pneumoniae IID 553. To be noted: Streptococcus pneumoniae, IID553, sensitive disc media, Japan Society of Chemotherapy method, read-out: MIC (Minimum Inhibitory Concentration). How it is done: as §1
Experiment [6] deals with erythromycin-sensitive bacteria. The experiment in a line: Antibacterial activity against erythromycin-sensitive bacteria (in words). The procedure: as §1
The test system of experiment [7] is erythromycin-resistant bacteria. The experiment in a line: Antibacterial activity against erythromycin-resistant bacteria (in words). The procedure: as §1
In experiment [8] the test system is S. aureus Smith. The experiment in a line: In vitro antibacterial activity (MIC), S. aureus Smith. As to conditions: Staphylococcus aureus, sensitive disc media, Japan Society of Chemotherapy method, read-out: MIC (Minimum Inhibitory Concentration). How it is done: as §1
The test system of experiment [9] is S. aureus 209P-JC. Briefly: In vitro antibacterial activity (MIC), S. aureus 209P-JC. As to conditions: Staphylococcus aureus, sensitive disc media, Japan Society of Chemotherapy method, read-out: MIC (Minimum Inhibitory Concentration). The procedure: as §1

Turning to `CC[C@H]1OC(=O)[C@H](C)[C@@H](O[C@H]2C[C@@](C)(OC)[C@@H](O)[C@H](C)O2)[C@H](C)[C@@H](O[C@@H]2O[C@H](C)C[C@H](N(C)C)[C@H]2O)[C@](C)(OC)C[C@@H](C)C(=O)[C@H](C)[C@@H](O)[C@]1(C)O` [Comparative drug, Clarithromycin, reference compound], the MIC in experiment [1] was 1.56 µg/mL (≈ 2.09 µM); in experiment [2] it was > 100 µg/mL; in [3], > 100 µg/mL; in experiment [4], > 100 µg/mL; in experiment [5], 0.1 µg/mL (≈ 0.134 µM).
Turning to `CC[C@H]1OC(=O)[C@H](C)[C@@H](OC(=O)Cc2ccccn2)[C@H](C)[C@@H](O[C@@H]2O[C@H](C)C[C@H](N(C)C)[C@H]2O)[C@](C)(OC)C[C@@H](C)C(=O)[C@H](C)[C@H]2N(CCN(C)Cc3cccnc3)C(=O)O[C@]12C` [Example 4, 11-{2-[N-methyl-N-(3-pyridylmethyl)amino]ethyl}amino-11-deoxy-3-O-(2-pyridyl)acetyl-5-O-desosaminyl-6-O-methylerythronolide A 11,12-cyclic carbamate], the MIC in experiment [1] is 0.39 µg/mL (≈ 0.442 µM); in experiment [2] it was 0.39 µg/mL (≈ 0.442 µM); in experiment [3], > 100 µg/mL; in [4], 0.39 µg/mL (≈ 0.442 µM); in [5] it was 0.1 µg/mL (≈ 0.113 µM); in [8], 0.2 µg/mL (≈ 0.227 µM). For the same compound, the MIC in experiment [9] worked out at 0.1 µg/mL (≈ 0.113 µM). Also, the antibacterial activity result in experiment [6] and in experiment [7] was “strong antibacterial activity” each time.
